Test: xn = mol fraction of the nth substance listed, in the solute-free solvent

NC(N)=C([N+](=O)[O-])[N+](=O)[O-] + CS(C)=O + CC(=O)CC(C)C
solubility (g/100 g solution)
Conditions | 293.15 K | 298.15 K | 303.15 K | 308.15 K | 313.15 K | 318.15 K | 323.15 K | 328.15 K | 333.15 K
x2 = 0.1634 | 1.9 | 1.97 | 2.1 | 2.25 | 2.41 | 2.57 | 2.74 | 2.92 | 3.13
x2 = 0.3054 | 5.11 | 5.4 | 5.7 | 5.99 | 6.28 | 6.6 | 6.95 | 7.29 | 7.68
x2 = 0.4297 | 9.16 | 9.64 | 10 | 10.4 | 10.8 | 11.2 | 11.7 | 12.2 | 12.7
x2 = 0.5397 | 13.1 | 13.7 | 14.2 | 14.6 | 15.1 | 15.6 | 16.1 | 16.7 | 17.2
x2 = 0.6375 | 17 | 17.6 | 18.1 | 18.6 | 19 | 19.6 | 20.1 | 20.7 | 21.3
x2 = 0.7251 | 20.2 | 21 | 21.5 | 21.9 | 22.5 | 23.1 | 23.7 | 24.3 | 25
x2 = 0.804 | 23.2 | 23.8 | 24.3 | 24.8 | 25.3 | 25.9 | 26.6 | 27.2 | 27.8
x2 = 0.8755 | 25.6 | 26.3 | 26.8 | 27.2 | 27.8 | 28.4 | 28.9 | 29.6 | 30.2
x2 = 0.9406 | 27.4 | 28.5 | 29 | 29.5 | 30.1 | 30.6 | 31.2 | 31.8 | 32.4

CC1=NNC(=O)N(N=Cc2cccnc2)C1 + CS(C)=O + CC(C)O
solubility (g/100 g solution)
Conditions | 293.15 K | 298.15 K | 303.15 K | 308.15 K | 313.15 K | 318.15 K
x2 = 0.1614 | 0.482 | 0.555 | 0.623 | 0.721 | 0.847 | 0.956
x2 = 0.3392 | 0.992 | 1.11 | 1.25 | 1.39 | 1.57 | 1.77
x2 = 0.5359 | 1.42 | 1.59 | 1.78 | 2.05 | 2.32 | 2.58
x2 = 0.7549 | 1.8 | 2.01 | 2.28 | 2.59 | 2.91 | 3.28

NC(N)=C([N+](=O)[O-])[N+](=O)[O-] + CS(C)=O + CCC(C)=O
solubility (g/100 g solution)
Conditions | 293.15 K | 298.15 K | 303.15 K | 308.15 K | 313.15 K | 318.15 K | 323.15 K | 328.15 K | 333.15 K
x2 = 0.1228 | 2.96 | 3.02 | 3.23 | 3.43 | 3.66 | 3.88 | 4.15 | 4.41 | 4.69
x2 = 0.2395 | 6.6 | 7.02 | 7.36 | 7.71 | 8.11 | 8.5 | 8.9 | 9.32 | 9.81
x2 = 0.3506 | 10.8 | 11.4 | 11.7 | 12.2 | 12.7 | 13.1 | 13.6 | 14.2 | 14.8
x2 = 0.4565 | 14.7 | 15.3 | 15.7 | 16.2 | 16.7 | 17.2 | 17.8 | 18.4 | 19
x2 = 0.5575 | 18.4 | 19.1 | 19.6 | 20 | 20.6 | 21.1 | 21.7 | 22.4 | 23
x2 = 0.6539 | 21.6 | 22.1 | 22.7 | 23.2 | 23.8 | 24.4 | 25 | 25.6 | 26.4
x2 = 0.7462 | 24.1 | 24.8 | 25.3 | 25.7 | 26.3 | 26.9 | 27.5 | 28.1 | 28.8
x2 = 0.8344 | 26.2 | 26.7 | 27.2 | 27.7 | 28.2 | 28.8 | 29.4 | 30 | 30.7
x2 = 0.9189 | 27.9 | 28.7 | 29.2 | 29.6 | 30.1 | 30.6 | 31.2 | 31.9 | 32.5

c1ccc2c(c1)CCc1ccccc1N2 + CS(C)=O + O
solubility (g/100 g solution)
Conditions | x2 = 0.02506 | x2 = 0.0546 | x2 = 0.08995 | x2 = 0.1286 | x2 = 0.1882 | x2 = 0.2567 | x2 = 0.3485 | x2 = 0.4779 | x2 = 0.665
293.15 K | 0.237 | 2.56 | 6.27 | 6.04 | 5.43 | 5.01 | 4.74 | 5.59 | 6.04
298.15 K | 0.323 | 3.31 | 7.85 | 7.49 | 6.85 | 6.32 | 5.77 | 6.8 | 7.23
303.15 K | 0.412 | 4.04 | 9.35 | 8.95 | 8.16 | 7.51 | 6.86 | 8.1 | 8.7
308.15 K | 0.544 | 5.06 | 11.4 | 10.8 | 9.87 | 8.98 | 8.2 | 9.64 | 10.2
313.15 K | 0.69 | 6.11 | 13.3 | 12.7 | 11.6 | 10.5 | 9.62 | 11.2 | 11.7
318.15 K | 0.878 | 7.39 | 15.7 | 14.9 | 13.7 | 12.4 | 11.2 | 12.8 | 13.4
323.15 K | 1.11 | 8.88 | 18.2 | 17.2 | 15.8 | 14.3 | 13 | 14.6 | 15.1
328.15 K | 1.39 | 10.5 | 21 | 19.9 | 18.1 | 16.5 | 14.9 | 16.5 | 17.1

From the CheMixHub drug solubility set
